Assay results as given in PubChem BioAssay (NCI).
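Values below derive from 48-hour exposures of cells grown in 96-well plates, with endpoints linearly interpolated between the two concentrations bracketing the appropriate inhibition level. GI50 = concentration required for 50% inhibition of growth. TGI: concentration producing complete growth inhibition.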

Tests used:
Assay in all cases: growth of human tumour cells (NCI), 48 h
HL-60(TB) leukemia = system: HL-60(TB) leukemia
LXFL 529 NSCLC = system: LXFL 529 NSCLC
SN12C renal = system: SN12C renal
NCI-H460 lung = system: NCI-H460 lung
HT29 colon = system: HT29 colon
K-562 leukemia = system: K-562 leukemia
M14 melanoma = system: M14 melanoma
SF-268 CNS = system: SF-268 CNS
OVCAR-4 ovarian = system: OVCAR-4 ovarian
DMS 114 small cell lung = system: DMS 114 small cell lung

Row | SMILES | TGI (HL-60(TB) leukemia) | TGI (LXFL 529 NSCLC) | TGI (SN12C renal) | TGI (NCI-H460 lung) | TGI (HT29 colon) | TGI (K-562 leukemia) | TGI (M14 melanoma) | TGI (SF-268 CNS) | TGI (OVCAR-4 ovarian) | TGI (DMS 114 small cell lung) | GI50 (HL-60(TB) leukemia) | GI50 (LXFL 529 NSCLC) | GI50 (SN12C renal) | GI50 (NCI-H460 lung) | GI50 (HT29 colon) | GI50 (K-562 leukemia) | GI50 (M14 melanoma) | GI50 (SF-268 CNS) | GI50 (OVCAR-4 ovarian)
1 | CN(C)CCC[N+]1=Nc2cccc3cccc(c23)N1 | 47.5 µM | > 100 µM | > 100 µM | > 100 µM | > 100 µM | > 100 µM | 39 µM | > 100 µM | > 100 µM | > 100 µM |  |  |  |  |  |  |  |  | 
2 | N#CC(/C(CCCC(=O)Nc1cccc([N+](=O)[O-])c1)=N\NC(=O)c1c(O)ccc2ccccc12)c1nc2ccccc2s1 (stereo not given) | 24.1 µM | > 100 µM | > 100 µM | > 100 µM | > 100 µM | > 100 µM | > 100 µM | > 100 µM | > 100 µM | 34.5 µM |  |  |  |  |  |  |  |  | 
3 | CCOC(=O)C1C(=O)CC(=O)C2CCCCC21 (stereo not given) | > 100 µM | > 100 µM | > 100 µM | > 100 µM |  | > 100 µM | > 100 µM | > 100 µM | > 100 µM | > 100 µM |  |  |  |  |  |  |  |  | 
4 | CC1(C)C(=O)/C=C\C(=O)C(C)(C)C(=O)/C=C\C(=O)C(C)(C)C2=CC=C(O2)C(C)(C)C(=O)/C=C\C1=O | 2.24 µM | 6.14 µM | 14.1 µM | 46.8 µM | 8.45 µM | > 46.9 µM | 5.63 µM | 43.8 µM | 14.8 µM | 21 µM |  |  |  |  |  |  |  |  | 
5 | CN(C)N=Nc1ccc(S(N)(=O)=O)cc1 |  |  | > 100 µM | > 100 µM | > 100 µM | > 100 µM | > 100 µM | > 100 µM | > 100 µM | > 100 µM |  |  |  |  |  |  |  |  | 
6 | CC12CCc3ccccc3C1=NNC(=O)C2 (stereo not given) | > 100 µM | > 100 µM | > 100 µM | > 100 µM | > 100 µM | > 100 µM | > 100 µM | > 100 µM | > 100 µM | > 100 µM |  |  |  |  |  |  |  |  | 
7 | CC(=O)CC(=O)Nc1ccccc1C(F)(F)F | > 100 µM | > 100 µM | > 100 µM | > 100 µM |  | > 100 µM | > 100 µM | > 100 µM | > 100 µM | > 100 µM |  |  |  |  |  |  |  |  | 
8 | CC(=O)Nc1ccc(/C=c2\sc3nnc(-c4cccnc4)n3c2=O)cc1 | 42.9 µM | 30.8 µM | 31 µM | 30.9 µM | 34.5 µM | 70.1 µM | 39.2 µM | 60 µM | 30.7 µM | 32.4 µM |  |  |  |  |  |  |  |  | 
9 | CN1CCN(c2nc(N)c(Br)c(Cl)n2)CC1 | > 100 µM | > 100 µM | > 100 µM | > 100 µM |  | > 100 µM | > 100 µM | > 100 µM | > 100 µM | > 100 µM |  |  |  |  |  |  |  |  | 
10 | O=C(CCc1ccccc1)CC1OC(=O)C(Cl)=C1Cl (stereo not given) |  | 29.4 µM | 38.3 µM | 96.2 µM | 58.2 µM | 88 µM | 31 µM | 79.9 µM | > 100 µM |  |  |  |  |  |  |  |  |  | 
11 | Cc1[nH]c2cc([N+](=O)[O-])ccc2c1[N+](=O)[O-] | 55.1 µM | 48.3 µM | 95 µM | 70.3 µM | 97 µM | > 100 µM | 44 µM | > 100 µM | 92 µM | 33.6 µM |  |  |  |  |  |  |  |  | 
12 | CCN(CC)c1ccc(C2N3CCCCC3[C@@H]3c4[nH]c5ccccc5c4CCN23)cc1 (stereo not given in full) | 30.8 µM | 55.6 µM | 51.6 µM | 55.5 µM | 36.3 µM | 61.3 µM | 64.8 µM | 69 µM | > 100 µM | 33.1 µM |  |  |  |  |  |  |  |  | 
13 | CC(=O)[CH-]C(=O)c1ccccc1.CC(=O)[CH-]C(=O)c1ccccc1.CC(=O)[CH-]C(=O)c1ccccc1.[Ga+3] | 36.1 µM | 24.8 µM | 33.2 µM | 28.7 µM | 39.1 µM | 51.5 µM | 30.1 µM | 26.9 µM | 34.5 µM |  | 11.8 µM | 12 µM | 15 µM | 11.8 µM | 20.7 µM | 16.9 µM | 15.5 µM | 11.6 µM | 17.1 µM
14 | CC(=O)C1C(=O)C(=O)N(CCN2C(=O)C(=O)C(C(C)=O)C2=O)C1=O (stereo not given) |  | > 100 µM | > 100 µM | > 100 µM | > 100 µM | > 100 µM | > 100 µM | > 100 µM | > 100 µM | > 100 µM |  |  |  |  |  |  |  |  | 
15 | CCN(CC)C(=S)SS(C)(=O)=O | 26.6 µM | 30 µM | 29.9 µM |  | 31 µM | 47.8 µM | 32.1 µM |  | 34.7 µM |  |  |  |  |  |  |  |  |  | 
16 | CC(=O)OCC1OC(n2c(=S)n(-c3ccccc3)c(=O)c3cc(Br)ccc32)C(OC(C)=O)C1OC(C)=O (stereo not given) |  | > 100 µM | > 100 µM | > 100 µM | > 100 µM |  | > 100 µM | > 100 µM | > 100 µM | > 100 µM |  |  |  |  |  |  |  |  | 
17 | Cc1cc(Br)ccc1N=Nc1c(C)nn(-c2ccccc2)c1-c1ccccc1 | > 100 µM | > 100 µM | > 100 µM | > 100 µM | > 100 µM | > 100 µM | > 100 µM | > 100 µM | > 100 µM | > 100 µM |  |  |  |  |  |  |  |  | 
18 | Cc1ccc(S(=O)(=O)NNS(C)(=O)=O)cc1 |  | > 100 µM | > 100 µM | > 100 µM | > 100 µM | > 100 µM | > 100 µM | > 100 µM | > 100 µM | > 100 µM |  |  |  |  |  |  |  |  | 
19 | N#Cc1ccc(C2SCc3nc4ccccc4n32)cc1 (stereo not given) | > 100 µM | > 100 µM | > 100 µM | > 100 µM |  | > 100 µM | > 100 µM | > 100 µM | > 100 µM |  |  |  |  |  |  |  |  |  | 
20 | O=C(N/C(=C\c1ccc(/C=C(\NC(=O)c2ccccc2)c2nc3c(O)nc(S)nc3[nH]2)cc1)c1nc2c(O)nc(S)nc2[nH]1)c1ccccc1 |  | > 100 µM | > 100 µM | > 100 µM | > 100 µM | > 100 µM | > 100 µM | > 100 µM | > 100 µM | > 100 µM |  |  |  |  |  |  |  |  | 
21 | NC(=O)c1ncn(C2OC(CO)C(O)C2O)c1O (stereo not given) | > 100 µM | > 100 µM | > 100 µM | > 100 µM | 46.5 µM | > 100 µM | > 100 µM | > 100 µM | > 100 µM | > 100 µM |  |  |  |  |  |  |  |  | 
22 | CCN(CC)c1c(C)nnn1C1OC(COC(C)=O)C(OC(C)=O)C(OC(C)=O)C1OC(C)=O (stereo not given) | > 100 µM | > 100 µM | > 100 µM | > 100 µM | > 100 µM | > 100 µM | > 100 µM | > 100 µM | > 100 µM | > 100 µM |  |  |  |  |  |  |  |  | 
23 | CCCCOC(=O)NC(=O)c1cn(CCCOC(=O)CCCCCCCCC(=O)OCCCn2cc(C(=O)NC(=O)OCCCC)c(=O)n(C)c2=O)c(=O)n(C)c1=O | > 100 µM | > 100 µM | > 100 µM | > 100 µM | > 100 µM | > 100 µM | > 100 µM | > 100 µM | > 100 µM | > 100 µM |  |  |  |  |  |  |  |  | 
24 | Cc1ccc(Nc2nc(-c3ccc(-c4ccc([N+](=O)[O-])cc4)o3)cs2)cc1 | > 100 µM | > 100 µM | > 100 µM | > 100 µM | > 100 µM | > 100 µM | > 100 µM | > 100 µM | > 100 µM |  |  |  |  |  |  |  |  |  | 
